Experimental data from a melting point compilation (Tetko et al.; mined from patent text by program, amines drawn as free bases though some values may be those of a salt).

melting point [°C] | Structure (SMILES)
119 to 120 | O=[N+]([O-])c1ccc(N2CCC(Nc3ncnc4c3ncn4[C@@H]3C[C@H](CO)[C@@H](O)[C@H]3O)C2)cc1 (some centres undefined)
60 to 64 | O=C1N(CCCl)CCN1C1CCCCC1
186 | c1ccc(C(c2ccc3[nH]cnc3c2)n2ccnc2)cc1 (centres undefined)
238 to 239 | Nc1cc(N2CCC(O)CC2)c(F)cc1[N+](=O)[O-]
172 to 174 | CC(C)OC(=O)N1CCC(NC(=O)N2CCn3c(c(C(N)=O)c(C#N)c3-c3ccccc3)C2)CC1
136 to 138 | Cc1ccccc1Cc1ccc(C(=O)O)o1
> 300 | CCOC(=O)C(=O)Nc1cc(C(=O)O)ccc1O
162 to 163 | O=S(=O)(c1cc(Cl)cc(Cl)c1)n1ccc2c(N3CCN(Cc4ccccc4)CC3)cccc21
202 to 204 | COc1cc(C#N)ccc1-c1cc(-c2cccc(C#N)c2)on1
257 to 258 | Cn1cnc(COc2nn3c(-c4cnccn4)nnc3cc2-c2ccccc2)n1
99 to 101 | COC(=O)c1ccc(Cl)cc1NC(=O)CSc1ccccc1Br
116 | NCCCc1csc(N=C2NCCCN2)n1
154 to 155 | CCC1(C)OC(c2ccc(S(N)(=O)=O)cc2)=C(c2ccc(C(C)=O)cc2)C1=O (centres undefined)
92 to 94 | CN(C)CCOc1ccc(C=NCCN=Cc2ccc(OCCN(C)C)cc2O)c(O)c1
119 | CC(C)c1c(Cl)nc2ncnn2c1Cl
175 to 177 | COc1ccc2c(c1)C(=O)N(c1ccc3cnn(C)c3c1)C2
255 to 257 | COc1cc2ccc3c4cc(OC)c(OC)cc4nc(C)c3c2cc1OC
189 to 190 | COC(c1ccc(NC(=O)c2c(C)nn(C)c2C)cc1CC(C)C)(C(F)(F)F)C(F)(F)F
80 to 120 | COc1cc(-c2nc(-c3cc(OC)c(OCc4ccccc4)c(OC)c3)c(-c3cc(OC)c(OCc4ccccc4)c(OC)c3)o2)cc(OC)c1OCc1ccccc1
203 to 205 | CCCCN(Cc1ccc(-c2ccccc2-c2nnn[nH]2)cc1)c1ncccc1C(=O)O
135 to 140 | COCC1(CC(=O)O)OCC(=O)c2c1[nH]c1ccccc21 (centres undefined)
114 to 115 | COc1ccc(Cn2c(=O)c3cccnc3n(CCCCl)c2=O)cc1

melting point [°C] | Structure (SMILES)
151 to 152 | Cc1ccc(N2CCN(Cc3ccc4c(c3)NCCN4)CC2)cc1Cl
130 to 131 | COCCO[C@H]1c2ccn3c(C)c(C)nc3c2N[C@@H](c2ccccc2)[C@@H]1O
124 to 126 | COc1ccc(C(=O)c2c(-c3ccc(OC)cc3)sc3ccccc23)cc1
109 to 111 | COc1cc(OC)c2c(=O)n(CCCN3CCCC3)c(-c3cc(C)c(OCCCN4CCCC4)c(C)c3)nc2c1
95 to 105 | CCCCCCCCCCCCCOc1ccc(CNc2ccc(C(=O)OCC)cc2)cc1
208 to 209 | Cc1cc2c(cc1Cl)C=C(C(=O)O)C(C(F)(F)F)O2 (centres undefined)
268 | COc1ccc(-c2[nH]nc3c2C(=O)c2c(NC(=O)Cc4ccc(NC(C)=O)cc4)cccc2-3)cc1
> 300 | O=c1c2c(-c3ccc(O)cc3)n[nH]c2c2cccnc2n1-c1ccccc1
71 to 73 | COc1c(F)cccc1C(=O)Cl
91.5 to 94 | OC(CCCn1ccnc1)c1ccc(Cl)cc1Cl (centres undefined)
168 to 170 | CC(=O)N1c2c(ccn3c(C)c(C)nc23)C(=O)[C@H](OC(=O)C(C)(C)C)[C@H]1c1ccccc1
235 to 237 | COc1ccccc1NC(=O)Nc1cccc(-n2c(=O)c(CCC(=O)ON3C(=O)CCC3=O)nc3cccnc32)c1
> 260 | CCc1nc2c(N)nc3cc(/C=C/C(=O)N(C)C)ccc3c2n1CC1CCOCC1
242 to 244 | CCC(C)(C)Nc1c(NCc2ccc(F)cc2F)c(=O)c1=O
176 to 179 | C[C@@H](N)CN(c1ccccn1)S(=O)(=O)O
245 | CC1SC(=O)NN=C1c1ccc2c(c1)C(C)(C)C(=O)N2C(=O)c1cccnc1 (centres undefined)
160 to 162 | COc1ccc(N2CCN(c3c(C)c(C)c4c(c3C)OC(C)(C)C4c3ccc(C)cc3)CC2)cc1 (centres undefined)
286 to 290 | CS(=O)(=O)c1ccc(-c2nc(C(F)(F)F)nc(NN)c2-c2ccc(F)cc2)cc1
103 to 104 | C=CC(=O)NCc1ccc(Cl)cc1
88 to 90 | Cc1sc2c(c1CCN1CCC(c3noc4cc(F)ccc34)CC1)CCNC2
95 to 97 | CCC(CCOC)n1cc(Cl)nc(N2CCc3cc(Cl)cc(Cl)c32)c1=O (centres undefined)
98 to 100 | CS(=O)(=O)c1ccc(-c2cc(COCCO[N+](=O)[O-])nn2CC2CCCCC2)cc1

melting point [°C] | Structure (SMILES)
101 to 103 | COc1cccc(C2=C(CC(C)N3CCCCC3)C(=O)N(C)CCC2)c1 (centres undefined)
156 to 159 | CC(C)N1CC(c2cc(CCc3ccccc3)ncn2)=C(O)C1=O
88 to 90 | CC(C)(C)OC(=O)[C@@H](C(N)c1ccccc1)[C@@H](O)C[C@@H](Cc1ccccc1)c1ncc2n1C(O)C(C)(C)C2=O (some centres undefined)
193 to 196 | Cc1cc(C)c(/C=C2\C(=O)N(C(=O)CNC(=O)OCc3ccccc3)c3ccccc32)[nH]1
139 to 140 | Cc1cc(C(=O)O)ccc1C1=CCC2CC1C2(C)C (centres undefined)
282 to 284 | CN1c2c(oc(=O)n(-c3ncccn3)c2=O)-c2ccccc2S1(=O)=O
189 to 191 | O=c1cnc(-c2cc(-c3ccsc3)cc(-c3ccsc3)c2)nn1CC(F)(F)F
252 to 254 | COCCNS(=O)(=O)c1ccc(Nc2nccc(-c3sc(-c4cccnc4)nc3C)n2)cc1
195 to 197 | O=C(CN1CC(S(=O)Cc2ccc(C(=O)O)cc2)C1=O)NCCCCCCc1ccc(Cl)cc1 (centres undefined)
146 to 148 | c1cc(CN2CCCCC2)cc(OCCCNc2nc3ccccc3[nH]2)c1
200 to 202 | COC(=O)C1=C(C)NC(C)=C(c2nc(CCl)no2)C1c1cccc([N+](=O)[O-])c1 (centres undefined)
181 | COc1ccc(S(=O)(=O)N2C(=O)C(O[Si](C)(C)C)(c3ccccc3OC(F)(F)F)c3cc(Cl)ccc32)c(OC)c1 (centres undefined)
193 | CC(=O)Nc1nc(C(Cl)(Cl)Cl)ns1
95 to 97 | COC(=O)c1ccc(-c2cccc(C=O)c2)cc1
55 to 56.5 | CC(C(=O)Oc1ccc([N+](=O)[O-])cc1)c1ccccc1 (centres undefined)
87 to 90 | CC(=O)c1c(C)c2c(c(C)c1O)OC(C)(C)C(C)C2 (centres undefined)
163 to 164 | COc1ccc(Oc2ccc3c(c2)OCC(=O)N3)cc1
106 to 109 | O=[N+]([O-])c1ccccc1NCC12CC3CC(CC(C3)C1)C2
250 to 252 | CS(=O)(=O)c1ccc(C(=O)O)c(C(F)(F)F)c1F
178 | CN1C(=O)C(=O)N(Cc2ccccc2)CC1(CCOC1CCCCO1)c1ccc(Cl)c(Cl)c1 (centres undefined)
201 to 204 | N#Cc1ccc(Oc2ccc3ccc(Oc4ccc(C#N)c(C#N)c4)cc3c2)cc1C#N
116 to 117 | CC1(C)CC(=C(c2ccccc2)c2ccc(OCCOCCO)cc2)CC(C)(C)C1

melting point [°C] | Structure (SMILES)
196 to 200 | C[C@@H](NC(=O)c1c[nH]c2ncc(-c3nn(C)c4cc(Cl)cc(Cl)c34)nc12)C(=O)N1CC(C#N)C1
169 to 170 | CC(C)(C)OC(=O)N1CCC(c2noc3c(O)c(F)ccc23)CC1
224 to 226 | COc1cc(C#N)c(C(C)=O)cc1[N+](=O)[O-]
164 to 166 | Clc1cc(Cl)c2nccc(Br)c2c1
142 to 145 | CCCc1nc2c(N)nc3cc(OCCOCc4ccccc4)ccc3c2s1
251 to 252 | COc1ccc(Nc2cc(=O)n(-c3ccc(Cl)cc3)nc2-c2nc[nH]n2)cc1
135 to 136 | CC(=O)OC1CCC2(C)C(CCC3C2CCC2(C)C(C(=O)C=[N+]=[N-])CCC32)C1 (centres undefined)
231 to 232 | O=C(Nc1cccnc1)N1CCN(c2nccc(-c3cc(F)cc(F)c3)n2)CC1
115 to 117 | COc1cc(CCNC(=O)[C@@H](N)C(C)C)ccc1OCC#Cc1ccc(Cl)cc1
203 to 205 | O=C(Nc1ccc(CP(=O)(O)O)cc1)C1=Cc2cc(C3CCCCC3)ccc2CC1
185 to 198 | Cc1cc(C)c(C)c(-c2cc3cnc(NCCCN4CCN(C)CC4)nc3nc2NC(=O)NC(C)(C)C)c1C
229 to 230 | CCn1cc2c(n1)c(N)nc1cc(OCc3ccccc3)ccc12
193 to 195 | N#Cc1cc(-c2ccoc2)c2ccc(COc3cc(F)cc(-c4cccnc4)c3)cc2n1
76 to 77 | CC12CCC3C(CCC4CC=CCC43C)C1CC=C2Br (centres undefined)
131 to 132 | CCOC(=O)CCCCn1c(=O)[nH]c2ccc(F)cc2c1=O
176 to 178 | COc1ccc2c3c(c(=O)oc2c1)CN(Cc1ccc([N+](=O)[O-])cc1)CC3
76 to 77 | COC(=O)Cc1cccc(OCc2nc(CCc3nc(-c4ccccc4)oc3C)no2)c1
137 to 138 | CCOc1cc(COc2nn(Cc3ccccc3)cc2CO)ccc1OCc1nc(-c2ccco2)oc1C
139 to 141 | N#Cc1c(Nc2c(F)cccc2F)cccc1-c1ccccc1
250 to 251 | CS(=O)(=O)CCN1CCC2(CC1)CC(=O)c1cc(NS(C)(=O)=O)ccc1O2

Structure (SMILES) | melting point [°C]
NC(=O)NCc1ccc(CNC(=O)[C@@H](CCCNC(N)=N[N+](=O)[O-])NC(=O)Cc2ccc(O)cc2)cc1 | 168 to 170
Cc1cc(C(=O)NCO)ncc1C(c1c(F)ccc(F)c1F)S(=O)(=O)CCC(F)(F)C(F)(F)F (centres undefined) | 126 to 128
CN1CC=C(c2c[nH]c3ccc(NC(N)=S)cc23)CC1 | 209 to 211
O=C(O)c1cn(CC2CCC2)c2cc(Cl)ccc12 | 191 to 193
C=CCN(CC=C)Cc1nc(-c2ncn3c2[C@@H]2CCN2C(=O)c2c-3ccc(F)c2Cl)no1 | 103 to 104
CN(Cc1ccccc1)Cc1nc(-c2ncn3c2CN(C)C(=O)c2cc(F)ccc2-3)no1 | 161 to 162
Cc1nc2ccc3c(c2o1)OC(CN1CC=C(c2c[nH]c4ccc(Cl)cc24)CC1)CO3 (centres undefined) | 144 to 145
CN(C)C=NC(=N[N+](=O)[O-])NC1CC1 | 120 to 122
